Like-named read-outs stand apart in the source and are kept apart here.
How the values were obtained:
[1] = target: T1, PBP1b (Escherichia coli, UniProt P02919); experiment: Gel-based Bocillin FL competition PBP binding assay
T1 construct: endogenous in cells; host or cells: Escherichia coli ECM5497 (MG1655), total membrane preparation
Description: (§1) Ten milliliters of overnight bacterial culture was inoculated in 1 L of LB medium and grown to an OD600 of 0.7 to 0.9. The cell pellet was washed once with 50 mL of solution containing 100 mM Na-phosphate at pH 7.0 and 100 mM NaCl and resuspended in 10 mL of the same buffer with one tablet of EDTA-free mini-protease inhibitor and 10 mg of lysozyme. Cell suspensions were incubated for 45 min at 37°C, and then 200 μL of DNase I was added along with MgSO4 (to a final concentration of 10 mM), followed by three cycles of freeze-thawing (10 min and 20 min, respectively). Four cycles of sonication at maximum power were performed next, each cycle lasting for 30 s with 1 min on ice between cycles. The cell suspension was centrifuged at 12,000 × g for 10 min at 4°C. The supernatant was collected and centrifuged at 100,000 × g for 45 min at 4°C. The pellet was washed three times with 10 mL of 100 mM Na-phosphate, pH 7.0, by resuspension and subsequent centrifugation at 100,000 × g for 10 min at 4°C. The pellet was finally resuspended in 1.5 mL of 100 mM Na-phosphate, pH 7.0, and passed several times through a Dounce homogenizer (tight pestle). Membrane preparations were aliquoted and kept at −80°C.
(§2) Five microliters of total bacterial membrane preparation was mixed with 5 μL of a test compound at a desired concentration in 100 mM Na-phosphate buffer, pH 7.0. Incubation of bacterial membrane preparations with control beta-lactams was performed for 10 min at 30°C; xeruborbactam was incubated with membrane preparations for 1 h at 30°C. Five microliters of 150 μM Bocillin FL fluorescent probe (Thermo Fisher Scientific) was added, and the reaction mixture was incubated for an additional 10 min at 30°C in the case of beta-lactams or for 20 min on ice (0°C) in the case of xeruborbactam. We believe that the 0°C temperature is required to prevent displacement of xeruborbactam from its complex by the Bocillin probe. At the end of the incubation step, 15 μL of 2× SDS sample loading buffer was added, and the reaction mixture was incubated for 5 min at 95°C. Twenty-five microliters of the reaction mixture was then loaded on an 8% SDS Tris-glycine gel (Thermo Fisher Scientific). At the end of the run, the gel was briefly rinsed with water and fixed in 10% acetic acid, 40% methanol for 20 min. After an additional wash in water for 30 min, the gel was scanned on a Typhoon Trio+ Imager using a blue laser filter (excitation, 488 nm, and emission, 520 nm). Densitometry of the gel images was performed using ImageQuant software (Molecular Dynamics). IC50 values were calculated with Prism software (GraphPad).

[2] = target: PBP3 (Acinetobacter baumannii, UniProt A0ABX6CK25); experiment: as above
Chain of PBP3 (Acinetobacter baumannii, UniProt A0ABX6CK25) (A0ABX6CK25 entry or part of it): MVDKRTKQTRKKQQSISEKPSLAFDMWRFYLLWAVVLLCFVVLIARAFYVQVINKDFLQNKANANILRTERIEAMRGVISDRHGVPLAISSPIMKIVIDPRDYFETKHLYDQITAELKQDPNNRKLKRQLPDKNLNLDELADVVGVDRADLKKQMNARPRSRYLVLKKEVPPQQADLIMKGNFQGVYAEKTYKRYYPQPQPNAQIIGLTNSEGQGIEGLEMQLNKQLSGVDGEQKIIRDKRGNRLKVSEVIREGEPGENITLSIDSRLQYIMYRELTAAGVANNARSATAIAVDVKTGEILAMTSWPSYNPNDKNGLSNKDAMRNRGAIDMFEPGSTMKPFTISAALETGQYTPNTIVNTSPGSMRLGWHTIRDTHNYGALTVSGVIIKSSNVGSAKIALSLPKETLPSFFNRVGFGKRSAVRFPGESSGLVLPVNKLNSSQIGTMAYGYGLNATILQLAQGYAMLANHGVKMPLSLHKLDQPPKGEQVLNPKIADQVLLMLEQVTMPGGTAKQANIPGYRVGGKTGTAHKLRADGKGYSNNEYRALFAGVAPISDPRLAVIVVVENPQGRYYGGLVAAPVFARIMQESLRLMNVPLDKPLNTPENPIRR
Description: as §1, §2

[3] = target: PBP3 (Klebsiella pneumoniae, UniProt A0A0H3GN85); experiment: as above
Chain of PBP3 (Klebsiella pneumoniae, UniProt A0A0H3GN85) (A0A0H3GN85 entry or part of it): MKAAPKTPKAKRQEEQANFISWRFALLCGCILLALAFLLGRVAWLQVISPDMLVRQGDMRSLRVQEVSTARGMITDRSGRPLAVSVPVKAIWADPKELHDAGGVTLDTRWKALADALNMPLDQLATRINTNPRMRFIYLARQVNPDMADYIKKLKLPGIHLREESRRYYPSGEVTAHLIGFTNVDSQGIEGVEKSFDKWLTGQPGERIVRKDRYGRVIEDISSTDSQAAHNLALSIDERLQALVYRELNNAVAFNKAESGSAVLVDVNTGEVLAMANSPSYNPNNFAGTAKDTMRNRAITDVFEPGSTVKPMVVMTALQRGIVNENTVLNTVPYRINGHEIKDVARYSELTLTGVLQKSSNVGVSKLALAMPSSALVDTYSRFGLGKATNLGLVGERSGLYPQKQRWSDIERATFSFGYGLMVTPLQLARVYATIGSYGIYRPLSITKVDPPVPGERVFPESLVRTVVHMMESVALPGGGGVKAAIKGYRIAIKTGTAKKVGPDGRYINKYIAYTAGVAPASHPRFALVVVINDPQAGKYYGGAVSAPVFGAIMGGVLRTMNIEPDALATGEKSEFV
Description: as §1, §2

[4] = target: PBP2 (Klebsiella pneumoniae, UniProt A6T696); experiment: as above
Description: as §1, §2

[5] = target: PBP1a (Klebsiella pneumoniae, UniProt A0A0H3GZF1); experiment: as above
Chain of PBP1a (Klebsiella pneumoniae, UniProt A0A0H3GZF1) (A0A0H3GZF1 entry or part of it): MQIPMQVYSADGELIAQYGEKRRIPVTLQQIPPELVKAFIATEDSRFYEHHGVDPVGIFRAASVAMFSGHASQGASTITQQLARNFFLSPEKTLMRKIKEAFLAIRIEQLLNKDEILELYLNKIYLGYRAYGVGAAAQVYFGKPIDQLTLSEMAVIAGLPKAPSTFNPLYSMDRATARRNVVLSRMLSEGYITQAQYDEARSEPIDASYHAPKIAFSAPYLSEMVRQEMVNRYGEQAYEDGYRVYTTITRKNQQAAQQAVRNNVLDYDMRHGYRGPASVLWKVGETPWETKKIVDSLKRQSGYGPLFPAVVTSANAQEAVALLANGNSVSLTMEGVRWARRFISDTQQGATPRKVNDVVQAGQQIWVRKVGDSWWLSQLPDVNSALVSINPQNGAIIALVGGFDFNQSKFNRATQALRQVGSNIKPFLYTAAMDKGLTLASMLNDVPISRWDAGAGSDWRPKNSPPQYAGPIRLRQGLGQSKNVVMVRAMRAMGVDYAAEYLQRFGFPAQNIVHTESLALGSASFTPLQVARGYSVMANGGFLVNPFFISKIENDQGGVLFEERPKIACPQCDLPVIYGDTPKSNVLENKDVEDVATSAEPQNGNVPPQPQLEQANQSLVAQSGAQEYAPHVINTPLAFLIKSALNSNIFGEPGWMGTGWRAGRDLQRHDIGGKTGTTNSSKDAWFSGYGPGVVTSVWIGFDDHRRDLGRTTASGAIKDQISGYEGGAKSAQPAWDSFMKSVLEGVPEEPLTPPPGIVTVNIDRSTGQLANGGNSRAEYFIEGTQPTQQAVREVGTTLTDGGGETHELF
Description: as §1, §2

[6] = target: PBP1a (Acinetobacter baumannii, UniProt A0ABX6CK30); experiment: as above
Chain of PBP1a (Acinetobacter baumannii, UniProt A0ABX6CK30) (A0ABX6CK30 entry or part of it): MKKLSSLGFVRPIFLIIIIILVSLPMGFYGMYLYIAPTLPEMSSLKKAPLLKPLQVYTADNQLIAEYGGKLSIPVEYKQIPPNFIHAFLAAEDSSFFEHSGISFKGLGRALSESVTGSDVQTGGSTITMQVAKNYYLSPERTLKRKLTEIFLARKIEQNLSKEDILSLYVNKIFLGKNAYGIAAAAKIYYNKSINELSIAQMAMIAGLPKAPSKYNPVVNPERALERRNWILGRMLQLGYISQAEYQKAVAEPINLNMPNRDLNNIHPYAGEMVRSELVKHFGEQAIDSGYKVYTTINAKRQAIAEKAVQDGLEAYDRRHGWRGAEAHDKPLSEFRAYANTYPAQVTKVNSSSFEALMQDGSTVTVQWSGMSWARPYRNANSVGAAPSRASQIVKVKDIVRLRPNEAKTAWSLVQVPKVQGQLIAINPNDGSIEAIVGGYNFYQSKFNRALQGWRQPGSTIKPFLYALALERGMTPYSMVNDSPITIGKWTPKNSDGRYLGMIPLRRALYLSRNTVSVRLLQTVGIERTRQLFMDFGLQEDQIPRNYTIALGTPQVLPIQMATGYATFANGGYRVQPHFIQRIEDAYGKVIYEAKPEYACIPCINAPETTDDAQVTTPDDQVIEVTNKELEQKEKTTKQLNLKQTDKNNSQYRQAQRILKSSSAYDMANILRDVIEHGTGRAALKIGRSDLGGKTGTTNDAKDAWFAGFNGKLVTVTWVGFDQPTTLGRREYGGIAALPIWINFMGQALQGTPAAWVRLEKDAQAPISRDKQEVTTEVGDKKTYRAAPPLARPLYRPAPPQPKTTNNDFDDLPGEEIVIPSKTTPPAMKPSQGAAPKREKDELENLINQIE
Description: as §1, §2

[7] = target: T2, PBP1a (Escherichia coli, UniProt P02918); experiment: as above
T2 construct: endogenous in cells; host or cells: Escherichia coli ECM5497 (MG1655), total membrane preparation
T2 sequence (P02918 whole entry): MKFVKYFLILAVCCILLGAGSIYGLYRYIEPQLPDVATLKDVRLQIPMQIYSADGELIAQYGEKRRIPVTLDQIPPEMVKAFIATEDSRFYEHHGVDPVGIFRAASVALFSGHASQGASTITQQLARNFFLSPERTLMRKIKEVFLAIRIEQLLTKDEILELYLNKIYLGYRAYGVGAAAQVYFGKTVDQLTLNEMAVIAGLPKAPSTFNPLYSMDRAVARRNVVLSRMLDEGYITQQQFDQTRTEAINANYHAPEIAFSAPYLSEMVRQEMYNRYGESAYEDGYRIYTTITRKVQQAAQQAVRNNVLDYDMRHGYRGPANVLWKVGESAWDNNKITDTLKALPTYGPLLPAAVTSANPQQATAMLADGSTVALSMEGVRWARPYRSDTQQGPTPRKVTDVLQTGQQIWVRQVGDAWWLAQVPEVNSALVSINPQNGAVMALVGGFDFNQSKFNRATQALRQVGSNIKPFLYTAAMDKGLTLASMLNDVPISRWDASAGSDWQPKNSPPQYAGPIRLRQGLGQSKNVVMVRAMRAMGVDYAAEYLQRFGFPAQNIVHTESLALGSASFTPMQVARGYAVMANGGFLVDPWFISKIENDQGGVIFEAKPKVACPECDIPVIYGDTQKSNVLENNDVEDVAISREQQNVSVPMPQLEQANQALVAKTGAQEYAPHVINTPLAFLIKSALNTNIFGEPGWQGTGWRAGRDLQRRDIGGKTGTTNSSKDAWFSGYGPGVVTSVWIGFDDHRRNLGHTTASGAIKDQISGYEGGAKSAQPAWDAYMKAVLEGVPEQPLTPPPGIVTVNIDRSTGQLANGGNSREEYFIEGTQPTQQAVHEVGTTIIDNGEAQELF
Description: as §1, §2

[8] = test system: A. baumannii strain ATCC 17978; experiment: Fluorescence microscopy, cellular morphology; format: cell-based, Acinetobacter baumannii; settings: xeruborbactam, meropenem 1× and 2× MIC; aztreonam 2× MIC; amdinocillin 2 μg/mL
Description: Single colonies of K. pneumoniae strain KPM1026a, A. baumannii strain ATCC 17978, and P. aeruginosa strain PAM1154 were picked from LB agar plates, inoculated in cation-adjusted Mueller-Hinton broth (CA-MHB), and incubated overnight at 30°C with rolling. Overnight cultures were diluted into fresh CA-MHB and incubated at 30°C, with rolling, until they reached an OD600 of ≈0.12 to 0.15 (equivalent to ~2 × 10^8 CFU/mL). Samples were then treated with compounds and incubated at 30°C, with rolling. After 1 or 2 h of treatment, cells were collected and stained with a dye mix containing FM4-64 (1 μg/mL), DAPI (4′,6-diamidino-2-phenylindole) (2 μg/mL), and SYTOX green (0.5 μM) (Molecular Probes, Invitrogen, or Thermo Fisher Scientific). Cells were transferred onto an agarose pad containing 1.2% agarose and 20% LB medium for microscopy. Microscopy was performed as previously described ([34]).

T1 sequence (P02919 whole entry): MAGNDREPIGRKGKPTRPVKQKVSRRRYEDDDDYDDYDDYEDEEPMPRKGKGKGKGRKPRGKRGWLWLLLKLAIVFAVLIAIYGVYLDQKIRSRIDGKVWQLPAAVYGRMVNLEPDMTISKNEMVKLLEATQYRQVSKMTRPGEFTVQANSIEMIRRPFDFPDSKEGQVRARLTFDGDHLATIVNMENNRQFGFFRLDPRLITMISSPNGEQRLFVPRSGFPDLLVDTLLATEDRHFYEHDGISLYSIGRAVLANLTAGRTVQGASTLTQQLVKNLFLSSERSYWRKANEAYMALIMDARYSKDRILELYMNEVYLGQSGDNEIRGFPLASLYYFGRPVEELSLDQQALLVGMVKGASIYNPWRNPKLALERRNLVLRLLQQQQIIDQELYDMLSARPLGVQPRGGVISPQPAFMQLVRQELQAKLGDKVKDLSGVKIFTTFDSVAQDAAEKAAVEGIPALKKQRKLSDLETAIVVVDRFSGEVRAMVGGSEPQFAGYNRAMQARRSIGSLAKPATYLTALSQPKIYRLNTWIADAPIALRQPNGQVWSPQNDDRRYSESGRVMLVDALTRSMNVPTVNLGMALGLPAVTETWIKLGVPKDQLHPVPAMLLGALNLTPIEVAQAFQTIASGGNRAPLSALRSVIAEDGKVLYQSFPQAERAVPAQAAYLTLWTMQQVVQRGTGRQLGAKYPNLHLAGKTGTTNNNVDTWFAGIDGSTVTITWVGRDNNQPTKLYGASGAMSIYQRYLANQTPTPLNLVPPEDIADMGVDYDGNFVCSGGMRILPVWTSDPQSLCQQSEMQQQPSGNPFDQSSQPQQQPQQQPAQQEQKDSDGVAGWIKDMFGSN

| Compound | IC50 [1] [µM] | IC50 ([2]; read-out: Relative binding IC50, PBP3; A. baumannii ACM1320 membranes; Bocillin FL step 0°C for xeruborbactam, 30°C for beta-lactams) [µM] | IC50 ([3]; read-out: Relative binding IC50, PBP3; K. pneumoniae KPM1001 membranes; Bocillin FL step 0°C for xeruborbactam, 30°C for beta-lactams) [µM] | IC50 [4] [µM] | IC50 ([5]; read-out: Relative binding IC50, PBP1a; K. pneumoniae KPM1001 membranes; Bocillin FL step 0°C for xeruborbactam, 30°C for beta-lactams) [µM] | IC50 ([6]; read-out: Relative binding IC50, PBP1a; A. baumannii ACM1320 membranes; Bocillin FL step 0°C for xeruborbactam, 30°C for beta-lactams) [µM] | IC50 [7] [µM] | cellular morphology [8] | IC50 ([1]; E. coli ECM5497 membranes, Bocillin FL step 0°C for xeruborbactam, 30°C for beta-lactams, read-out: Relative binding IC50, PBP1b) [µM] | IC50 ([2]; A. baumannii ACM1320 membranes; Bocillin FL step 0°C for xeruborbactam, 30°C for beta-lactams; read-out: Relative binding IC50, PBP3) [µM] | IC50 ([3]; K. pneumoniae KPM1001 membranes; Bocillin FL step 0°C for xeruborbactam, 30°C for beta-lactams; read-out: Relative binding IC50, PBP3) [µM] | IC50 ([4]; K. pneumoniae KPM1001 membranes, Bocillin FL step 0°C for xeruborbactam, 30°C for beta-lactams, read-out: Relative binding IC50, PBP2) [µM] | IC50 ([5]; K. pneumoniae KPM1001 membranes; Bocillin FL step 0°C for xeruborbactam, 30°C for beta-lactams; read-out: Relative binding IC50, PBP1a) [µM] | IC50 ([6]; A. baumannii ACM1320 membranes; Bocillin FL step 0°C for xeruborbactam, 30°C for beta-lactams; read-out: Relative binding IC50, PBP1a) [µM] | IC50 ([7]; E. coli ECM5497 membranes, Bocillin FL step 0°C for xeruborbactam, 30°C for beta-lactams, read-out: Relative binding IC50, PBP1a) [µM] |
| --- | --- | --- | --- | --- | --- | --- | --- | --- | --- | --- | --- | --- | --- | --- | --- |
| C[C@@H](O)[C@H]1C(=O)N2C(C(=O)O)=C(S[C@@H]3CN[C@H](C(=O)N(C)C)C3)[C@H](C)[C@H]12 [Meropenem] | 21.1 | 0.19 | 0.24 | 0.003 | 6.6 | 0.07 | 5.4 | swelling and rounding but not elongation |  |  |  |  |  |  |  |
| O=C(O)c1c(F)ccc2c1OB(O)[C@@H]1C[C@H]21 [Xeruborbactam] |  |  |  |  |  |  |  | cell shape deformation, from coccobacilli to a football shape | 56 ± 18 | 135 ± 40 | 55 ± 8 | 51 ± 15 | 41 ± 6 | 1.4 ± 0.5 | 47 ± 13 |
